Results as given in US5874436A, “Triphenylalkyl antimicrobial agents” (priority 1997, dated 1999).
≈ marks a conversion by molar mass, not a printed value.

Tests used:
Kinase A and Spo0F = target: T1, Kinase A and Spo0F (Bacillus subtilis, UniProt P16497); assay: Autophosphorylation of Kinase A and transphosphorylation of Spo0F assay (HPK in vitro assay); assay type: biochemical; conditions: inhibitor concentrations from 1 to 500 μM, [32P]ATP, phosphoimager
T1 construct: made in house; host or cells: E. coli (recombinant, overexpressing)
T1 sequence (P16497 1-606): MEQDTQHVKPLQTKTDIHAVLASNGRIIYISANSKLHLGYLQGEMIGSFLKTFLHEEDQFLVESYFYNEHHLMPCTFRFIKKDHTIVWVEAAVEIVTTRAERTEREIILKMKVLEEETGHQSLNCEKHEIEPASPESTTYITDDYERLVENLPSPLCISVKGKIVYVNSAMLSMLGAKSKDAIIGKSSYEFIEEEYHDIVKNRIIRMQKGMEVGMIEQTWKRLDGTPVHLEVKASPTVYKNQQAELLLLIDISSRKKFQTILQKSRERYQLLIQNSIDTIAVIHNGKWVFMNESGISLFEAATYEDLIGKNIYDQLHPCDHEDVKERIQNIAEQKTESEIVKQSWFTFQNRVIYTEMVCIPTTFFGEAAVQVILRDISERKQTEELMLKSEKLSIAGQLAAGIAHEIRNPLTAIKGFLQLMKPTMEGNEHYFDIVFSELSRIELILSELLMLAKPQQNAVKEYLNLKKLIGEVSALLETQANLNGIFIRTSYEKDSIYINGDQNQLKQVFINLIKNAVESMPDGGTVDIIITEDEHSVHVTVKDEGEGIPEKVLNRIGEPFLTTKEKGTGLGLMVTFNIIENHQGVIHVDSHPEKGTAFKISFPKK
Protocol: 1. Autophosphorylation of Kinase A and Transphosphorylation of Spo0F Assay
To study the effect of the compounds of the present invention on the signal transduction process in bacteria, the inhibiting effect of the compounds on the sporulation operon proteins Kinase A and Spo0F was examined. Specifically, the inhibition of autophosphorylation of Kinase A and the transphosphorylation of Spo0F was determined in the following assays. The Spo0F response regulator is the primary substrate for phosphorylation by the protein kinase, Kin A, involved in the sporulation process in bacteria. See D. Burbulys, K. A. Trach, J. A. Hoch, Cell, 64, 545-552 (1991). Spo0F and KinA were prepared from recombinant E. coli overexpressing the proteins (J. Cavanagh et al, Amino Acids, 6, 131-140 (1994) and references therein).
The following stock reagents were either prepared and used promptly or stored at the indicated temperature:
8 X Salts : 2M KCl (5 mL), 1M MgCl2 (800 mL), 1M CaCl2 (100 mL), 10 mg/mL phenylmethylsulfonyl fluoride (200 mL), 1 M dithioreitol (50 mL), 0.25M Na2 EDTA (32 mL) and H2 O mL (-20° C.)
5×Loading Dye: 0.5M TRIS-HCl-pH 6.8 (7.5 mL), 10% SDS (2 mL) 0.1% bromophenol blue (0.5 mL), 100% glycerol (3 mL) and 12.5 M 2-mercaptoethanol (0.3 mL)
1-1.3 mg/mL KinA:15 mM TRIS-HCl, pH 8.0, 6 mM KCl; 4 mM 2-mercaptoethanol; 40% glycerol (-20° C.)
1 mg/mL Spo0F: 17.5 mM TRIS-HCl, pH 8.0; 0.7 mM KCl; 0.7 mM MgCl2; 0.7 mM CaCl2; 5mM 2-mercaptoethanol; 30% Glycerol (-20° C.)
5% Stacking Gel: 40% 29:1 acrylamide:bis acrylamide (1.25 mL), 0.5M TRIS-HCl, pH 6.8 (2.5 mL), 10% SDS (0.1 mL), D-H2 O (6.15 mL) 10% ammonium persulfate (100 mL) and TEMED (25 mL) SDS Running Buffer: TRIS-BASE (3.02 g), glycine (14.4 g) SDS (1 g), D-H2 O (to 1L)
The reaction mixture was prepared from 8×Salts (87 μL), 1M TRIS, pH 8 (118 μL), 50% glycerol (63 μL), Spo0F (14.1 μL) and KinA (7.0 μL). Microcentrifuge tubes were charged with the reaction mixture (18.5 μL) and a 1.0 mM solution of the test compound in 5% DMSO (18.5 μL), and incubated for 15 min on ice. 100 mM ATP solution (3.0 μl, containing 625 μCi [^32 P]ATP) was added, and the mixture left for 10 minutes at room temperature. The reaction was quenched with 5×loading dye (10 μL per tube) and the samples were loaded on a prepared 5% Stacking Gel, or stored on dry ice until ready for use. The prepared wells were filled with SDS Running Buffer, samples were loaded into the wells, and 80 volts were applied to the gel until the dye front reached the bottom of the stacking gel. The voltage was then increased to 250 volts until electrophoresis was complete. Radioactive bands in the gel corresponding to phosphorylated KinA and Spo0F were imaged and quantitated with a phosphoimager.
If either enzyme was inhibited (as evidenced by the absence of labelled protein in the developed gel), an IC50 was calculated by running the assay with a range of inhibitor concentrations from 1 to 500 μM. After electrophoresis of the reaction mixtures, percent inhibition was determined by measuring the concentration of radioactive phosphorus with a phosphoimager and calculating the values using a software program (BioRad Molecular Analyst).

selected microorganisms = assay: MIC antimicrobial assay (NCCLS microdilution broth method); assay type: cell-based
Protocol: 2. MIC Anitimicrobial Assay
The in vitro antimicrobial activity of the compounds was determined by the microdilution broth method following the test method from the National Committee for Laboratory Standards (NCCLS). This method is described in the NCCLS Document M7-A2, Vol.10, No.8 "Methods for Dilution Antimicrobial Susceptibility Test for Bacteria that Grow Aerobically--Second Edition."
In this method two-fold serial dilutions of drug in cation supplemented Mueller-Hinton broth are added to wells in microdilution trays. The test organisms are prepared by adjusting the turbidity of actively growing broth cultures so that the final concentration of test organism after it is added to the wells is approximately 5×10^4 CFUs/well).
Following inoculation of the microdilution trays, the trays are incubated at 35° C. for 16-20 hours and then read. […] The amount of growth in the wells containing the test compound is compared with the amount of growth in the growth-control wells (no test compound) used in each tray.

Compound	IC50 (Kinase A and Spo0F) [µM]	MIC (selected microorganisms) [mg/L]
O=C(CC(c1ccccc1)(c1ccccc1)c1ccccc1)Nc1ccc(N2CCNCC2)cc1 [Example 1, 4-[4-(3,3,3-Triphenylpropanoylamino)phenyl]piperazine]	200	–
C1=C(c2ccc(OCCC(c3ccccc3)(c3ccccc3)c3ccccc3)cc2)CCNC1 [Example 2, 4-[4-(3,3,3-Triphenylpropyloxy)phenyl]-1,2,3,6-tetrahydropiperidine]	170	–
NCCc1ccc(OCCC(c2ccccc2)(c2ccccc2)c2ccccc2)cc1 [Example 3, 2-(4-(3,3,3-triphenylpropoxy)phenyl)ethylamine]	14	2 to 4 (≈ 4.91 to 9.81 µM)
NCc1ccc(OCCC(c2ccccc2)(c2ccccc2)c2ccccc2)cc1 [Example 4, 4-(3,3,3-triphenylpropoxy)benzylamine]	19	–
N=C(N)NCCc1ccc(OCCC(c2ccccc2)(c2ccccc2)c2ccccc2)cc1 [Example 5]	5	1 to 2 (≈ 2.22 to 4.45 µM)
NCCc1ccc(OCCC(c2ccc(Cl)cc2)(c2ccc(Cl)cc2)c2ccc(Cl)cc2)cc1 [Example 6]	150	–
NCCc1cccc(OCCC(c2ccccc2)(c2ccccc2)c2ccccc2)c1 [Example 7, 2-(3-(3,3,3-triphenylpropoxy)phenyl)ethylamine]	80	–
COc1ccc(CCN)cc1OCCC(c1ccccc1)(c1ccccc1)c1ccccc1 [Example 8, 2-(4-methoxy-3-(3,3,3-triphenylpropoxy)-phenyl)ethylamine]	27	4 (≈ 9.14 µM)
N=C(N)NCCc1ccc(OCCC(c2ccc(Cl)cc2)(c2ccc(Cl)cc2)c2ccc(Cl)cc2)cc1 [Example 9, N-(2-(4-(3,3,3-tris(4-chlorophenyl)propoxy)-phenyl)ethyl)guanidine]	21	8 (≈ 14.5 µM)
N=C(N)NCCc1ccc(OCCCCC(c2ccccc2)(c2ccccc2)c2ccccc2)cc1 [Example 10]	15	2 to 4 (≈ 4.19 to 8.37 µM)
N=C(N)NCCc1ccc(OCCCC(c2ccccc2)(c2ccccc2)c2ccccc2)cc1 [Example 11]	21	–
O=C(O)CCc1ccc(OCCC(c2ccccc2)(c2ccccc2)c2ccccc2)cc1 [Example 12, 3-[4-(3,3,3-Triphenylpropoxy)phenyl]propionic acid]	51	2 to 16 (≈ 4.58 to 36.7 µM)
O=C(O)Cc1ccc(OCCC(c2ccccc2)(c2ccccc2)c2ccccc2)cc1 [Example 13, 2-[4-(3,3,3-Triphenylpropoxy)phenyl]acetic acid]	50	8 to 16 (≈ 18.9 to 37.9 µM)
O=C(O)CCc1ccc(SCCC(c2ccccc2)(c2ccccc2)c2ccccc2)cc1 [Example 14, 3-[4-(3,3,3-Triphenylpropylthio)phenyl]propionic acid]	34	4 to 8 (≈ 8.84 to 17.7 µM)
O=C(O)CCCc1ccc(OCCC(c2ccccc2)(c2ccccc2)c2ccccc2)cc1 [Example 15, 4-[4-(3,3,3-Triphenylpropoxy)phenyl]butyric acid]	14	8 to 64 (≈ 17.8 to 142 µM)
NCCc1ccc(NC(=O)CC(c2ccccc2)(c2ccccc2)c2ccccc2)cc1 [Example 16, N-[4-(2-Aminoethyl)phenyl]-3,3,3triphenylpropionamide]	59	32 to 64 (≈ 76.1 to 152 µM)
O=C(O)c1ccc2cc(OCCC(c3ccccc3)(c3ccccc3)c3ccccc3)ccc2c1 [Example 17, 6-(3,3,3-Triphenylpropoxy)-2-naphthoic acid]	300	4 to 64 (≈ 8.72 to 140 µM)
N=C(N)NCCc1ccc(NC(=O)CC(c2ccccc2)(c2ccccc2)c2ccccc2)cc1 [Example 18, N-[4-(2-Guanidinoethyl)phenyl]-3,3,3-triphenylpropionamide]	51	4 to 16 (≈ 8.65 to 34.6 µM)
c1ccc(C(CCOc2ccc(CCC3=NCCO3)cc2)(c2ccccc2)c2ccccc2)cc1 [Example 19, 4.5-Dihydro-2-{2-[4-(3,3,3-triphenylpropoxy)-phenyl]ethyl} oxazole]	260	–
O=C(O)c1ccc(OCCC(c2ccccc2)(c2ccccc2)c2ccccc2)cc1 [Example 21, 4-(3,3,3-Triphenylpropoxy)benzoic acid]	290	–
O=C(O)C(O)c1ccc(OCCC(c2ccccc2)(c2ccccc2)c2ccccc2)cc1 (stereo not drawn) [Example 37, 2-[4-(3,3,3-Triphenylpropoxy)phenyl]glycolic acid]	73	–
O=C(O)CCc1ccccc1OCCC(c1ccccc1)(c1ccccc1)c1ccccc1 [Example 38, 3-[2-(3,3,3-Triphenylpropoxy)phenyl]propionic acid]	27	–
c1ccc(C(CCOc2ccc(-c3nnn[nH]3)cc2)(c2ccccc2)c2ccccc2)cc1 [Example 39, 5-[4-(3,3,3-Triphenylpropoxy)phenyl]-1H-tetrazole]	110	–
NCCCc1ccc(SCCC(c2ccccc2)(c2ccccc2)c2ccccc2)cc1 [Example 40, 3-[4-(3,3,3-Triphenylpropylthio)phenyl]propylamine]	13	–
O=C1NC(=O)C(c2ccc(OCCC(c3ccccc3)(c3ccccc3)c3ccccc3)cc2)S1 (stereo not drawn) [Example 41, 5-[4-(3,3,3-Triphenylpropoxy)phenyl]thiazolidine-2,4-dione]	18	–
O=C(O)c1c(O)cccc1OCCC(c1ccccc1)(c1ccccc1)c1ccccc1 [Example 42, 2-Hydroxy-6-(3,3,3-triphenylpropoxy)benzoic acid]	85	–
O=C(O)/C=C/c1cccc(OCCC(c2ccccc2)(c2ccccc2)c2ccccc2)c1 [Example 43, trans 3-(3,3,3-Triphenylpropoxy)cinnamic acid]	40	–
O=C(O)COc1cccc(OCCC(c2ccccc2)(c2ccccc2)c2ccccc2)c1 [Example 44, 3-(3,3,3-triphenylpropoxy)phenoxyacetic acid]	71	–
O=C(O)COc1ccccc1OCCC(c1ccccc1)(c1ccccc1)c1ccccc1 [Example 45, 2-(3,3,3-triphenylpropoxy)phenoxyacetic acid]	20	–
O=C(O)CCCOc1cccc(OCCC(c2ccccc2)(c2ccccc2)c2ccccc2)c1 [Example 46, 4-[3-(3,3,3-triphenylpropoxy)phenoxy]butyric acid]	16	–
